These results are taken from patent US20210153502A1, “PLANT GROWTH AID AND PLANT GROWING METHOD” (priority 2018, published 2021).

Structures are written as SMILES.

The conditions of data set [1]: octanol/water, 25° C.; cited from earlier work.
The subject of data set [2] is PR1 protein. The experiment in a line: Evaluation of disease resistance: PR1 protein content of sprayed leaf by western blotting, rice. It counts as in vivo. The note with it: seedling sheet Z-1, band density relative to thiazinyl solution of same period. The method, then:
(§1) The results are shown in the rows of “cultivation in paddy field” of Table 3 (rice) and Table 4 (tomato).
(§2) A 1/5000-are pot was filled with 2.9 kg of paddy field soil (clay loam). Ten young seedlings having 2 to 3 leaves grown by the above method were planted in a depth of 2 cm and watered, and the seedlings were placed in water at a depth of 3 cm. The seedlings were left to stand at 25° C. for a predetermined period shown in Table 3 or Table 4 (days (day) from moving to paddy field until evaluation). Each leaf sprayed with the nanoparticle (P) dispersion (or thiazinyl solution) was cut off, immersed in ion exchange water in a container for one minute, and taken out from the container. The liquid in the container was replaced by fresh ion exchange water. The leaf was further subjected to an operation of immersing in the fresh ion exchange water in the container for one minute and taking out of the container three times, whereby the nanoparticles (P) (or thiazinyl) attached to the leaf surface were removed. Then, proteins were extracted from the above leaf using 8-min Plant Tissue Total Protein Extraction Kit (available from Cosmo Bio Co., Ltd.), and the PR1 protein content, which is a marker of disease resistance, in the extracted proteins was determined as follows. The total protein content was quantified with Micro BCATM protein assay kit (available from THERMO Fisher Scientific). […]
(§3) The test was performed five times for each seedling. The PR1 protein content was evaluated by western blotting (including electrophoresis, transferring, and color development) specifically described later. […]
(§4) After a PR1 protein band was detected in the transferring membrane after the operations (1) to (3), the density of the band was quantified with Image J (available from National Institutes of Health, USA). In Examples 11 to 14, the quantified density of the band in each of Examples 11 to 14 was divided by the density of the band in Comparative Example 3. […]

Data set [3] deals with PR1 protein. Briefly: Evaluation of disease resistance: PR1 protein content of sprayed leaf by western blotting, tomato. Type of data set: in vivo. The settings on record: seedling sheet Z-1, band density relative to thiazinyl solution of same period. The method, then: as §1, §2, §3, §4
Data set [4] deals with Hinohikari (rice). Briefly: Evaluation of crop injury after treatment with nanoparticles (P) or thiazinyl, rice. It counts as in vivo. The arrangement: key: 0: Harmless (healthy); 1: minimally damaged; 2: slightly damaged; 3: moderately damaged; 4: significantly damaged; 5: complete leaf firing. The settings on record: seedling sheet Z-1, 100 μL spray, thiazinyl 100 ppm. The procedure:
as §1
(§5) Young seedlings were treated with the nanoparticles (P) or thiazinyl in the same manner as in the method described in <Evaluation of disease resistance>. Then, the degree of crop injury on the leaf surface was evaluated after a predetermined period of time (days (day) shown in Tables 3 and 4, from moving to the paddy field until evaluation). Specifically, crop injury was visually evaluated with the naked eye according to the following criteria.

Data set [5] has as its system House Momotaro (tomato). The experiment in a line: Evaluation of crop injury after treatment with nanoparticles (P) or thiazinyl, tomato. It counts as in vivo. The note with it: seedling sheet Z-1, 100 μL spray, thiazinyl 100 ppm. The arrangement: key: 0: Harmless (healthy); 1: minimally damaged; 2: slightly damaged; 3: moderately damaged; 4: significantly damaged; 5: complete leaf firing. The method, then:
as §1, §5

Data set [6] deals with Hinohikari (rice). Briefly: Aerial part growing ratio after treatment with nanoparticles (P) or thiazinyl, rice. The note with it: seedling sheet Z-1, relative to thiazinyl solution of same period. Type of data set: in vivo. The method, then:
as §1
(§6) Young seedlings were treated with the nanoparticles (P) or thiazinyl in the same manner as in the method described in the <Evaluation of disease resistance>, and the aerial part growing state was evaluated after a predetermined period (shown in Tables 3 and 4, days (day) from moving to the paddy field until evaluation). Specifically, the aerial part growing state was evaluated by measuring the length of each part. The aerial part length in each example treated with the nanoparticles (P) for a predetermined period was divided by the aerial part length in the comparative example treated with a thiazinyl solution for the same period. The calculated value was regarded as the aerial part growing ratio.

Data set [7] deals with House Momotaro (tomato). The experiment in a line: Aerial part growing ratio after treatment with nanoparticles (P) or thiazinyl, tomato. Type of data set: in vivo. The note with it: seedling sheet Z-1, relative to thiazinyl solution of same period. The procedure: as §1, §6
Where [8] appears, read: 1 day from moving to paddy field.
Where [9] appears, read: 3 days from moving to paddy field.
Where [10] appears, read: 7 days from moving to paddy field.

On to `Cc1c(F)c(F)c(COC(=O)[C@@H]2[C@H](/C=C(\Cl)C(F)(F)F)C2(C)C)c(F)c1F` (racemic) [tefluthrin], for which the “Log Pow” value in data set [1] is 6.5.
Turning to `N#Cc1c(Cl)c(Cl)c(Cl)c(C#N)c1Cl` [TPN, chlorothalonil], the “Log Pow” value in data set [1] is reported as 2.92.
For `CSC(=O)c1cccc2nnsc12` [acibenzolar-S-methyl], the “Log Pow” value in data set [1] is on record as 3.1.
Consider `CC1(C)[C@H](C(=O)O[C@H](C#N)c2cccc(Oc3ccccc3)c2)[C@@H]1/C=C\C(=O)OC(C(F)(F)F)C(F)(F)F` [acrinathrin], for which the “Log Pow” value in data set [1] is given as 5.25.
Consider `O=C1C2CC=CCC2C(=O)N1SC(Cl)(Cl)Cl` (centres unmarked) [captan], for which, in data set [1], the “Log Pow” value is listed as 2.8.
On to `CCOP(=S)(OCC)Oc1cc(C)nc(C(C)C)n1` [diazinon], for which, in data set [1], the “Log Pow” value is recorded as 3.3.
On to `CCOc1ccc(NC(=O)OC(C)C)cc1OCC` [diethofencarb], for which, in data set [1], the “Log Pow” value was 3.02.
Turning to `N#CC(CCc1ccc(Cl)cc1)(Cn1cncn1)c1ccccc1` (centres unmarked) [fenbuconazole], in data set [1], the “Log Pow” value is 3.23.
For `COP(=S)(OC)Oc1ccc([N+](=O)[O-])c(C)c1` [fenitrothion], the “Log Pow” value in data set [1] is recorded as 3.43.
In the case of `C/C(=N/Nc1nc(C)cc(C)n1)c1ccccc1C` [ferimzone], in data set [1], the “Log Pow” value was 2.89.
For `O=C(NC(=O)c1c(F)cccc1F)Nc1ccc(Cl)c(Oc2ncc(C(F)(F)F)cc2Cl)c1` [fluazuron], in data set [1], the “Log Pow” value was 5.1.
In the case of `O=[N+]([O-])c1ccc(NS(=O)(=O)c2ccc(Cl)c(C(F)(F)F)c2)c(Cl)c1` [flusulfamide], the “Log Pow” value in data set [1] is on record as 2.8.
Regarding `CC(C)Oc1cccc(NC(=O)c2ccccc2C(F)(F)F)c1` [flutolanil], in data set [1], the “Log Pow” value was 3.17.
As to `CC(C)[C@H](Nc1ccc(C(F)(F)F)cc1Cl)C(=O)OC(C#N)c1cccc(Oc2ccccc2)c1` (some centres unmarked) [fluvalinate], the “Log Pow” value in data set [1] is 2.9.
For the molecule `CCOP(=O)(SC(C)CC)N1CCSC1=O` (centres unmarked) [fosthiazate], the “Log Pow” value in data set [1] is on record as 1.68.
Take `O=C1OCc2c(Cl)c(Cl)c(Cl)c(Cl)c21` [fthalide]: in data set [1], the “Log Pow” value is recorded as 3.01.
Take `Cc1nn(C)c(Cl)c1C(=O)Nc1cccc2c1C(C)OC2(C)C` (centres unmarked) [furametpyr]: the “Log Pow” value in data set [1] is 2.36.
On to `O=C(NC(=O)c1c(F)cccc1F)Nc1cc(Cl)c(OC(F)(F)C(F)F)c(Cl)c1` [hexaflumuron], for which, in data set [1], the “Log Pow” value was 4.68.
On to `CC(C)OP(=O)(OC(C)C)SCc1ccccc1` [iprobenfos], for which the “Log Pow” value in data set [1] is 3.37.
`N#Cc1ccccc1NC(=O)c1snc(Cl)c1Cl` [isotianil]: the “Log Pow” value in data set [1] is reported as 2.96.
With `O=C(NC(=O)c1c(F)cccc1F)Nc1cc(Cl)c(OC(F)(F)C(F)C(F)(F)F)cc1Cl` (centres unmarked) [lufenuron], the “Log Pow” value in data set [1] is 5.12.
With `COCC(=O)N(c1c(C)cccc1C)C(C)C(=O)OC` (centres unmarked) [metalaxyl], in data set [1], the “Log Pow” value is 1.75.
With `COc1nn(CSP(=S)(OC)OC)c(=O)s1` [methidathion], the “Log Pow” value in data set [1] was 2.2.
For `CCCCC(C#N)(Cn1cncn1)c1ccc(Cl)cc1` (centres unmarked) [myclobutanil], the “Log Pow” value in data set [1] was 2.9.
`C=CCCCOC(=O)C(CC)N(Cc1ccco1)C(=O)n1ccnc1` (centres unmarked) [pefurazoate]: the “Log Pow” value in data set [1] is listed as 3.0.
As to `CCCSP(=O)(OCC)Oc1cnn(-c2ccc(Cl)cc2)c1` (centres unmarked) [pyraclofos], the “Log Pow” value in data set [1] is given as 3.77.
Turning to `O=C1CCc2cccc3c2N1CC3` [pyroquilone], the “Log Pow” value in data set [1] was 1.42.
As to `Cc1ccc(NC(=O)c2snnc2C)cc1Cl` [thiazinyl], the “PR1 protein mass ratio” value in data set [2] (1 day), in data set [2] (3 days), in data set [2] (7 days), in data set [3] (1 day), in data set [3] (3 days) and in data set [3] (7 days) was 1.0 throughout. The Crop injury in data set [4] (setting [8]) is recorded as 3; in data set [4] (setting [9]), 4; in data set [4] (setting [10]), 4; in data set [5] (setting [8]), 2; in data set [5] (setting [9]) it was 3; in data set [5] (setting [10]), 3. Moreover, the “Aerial part growth ratio” value in data set [6] (1 day), in data set [6] (3 days), in data set [6] (7 days), in data set [7] (1 day), in data set [7] (3 days) and in data set [7] (7 days) was 1.0 in each case. In addition, the “Log Pow” value in data set [1] is given as 3.68.
As for `COC(=O)c1c(C(F)F)nc(C(F)(F)F)c(C2=NCCS2)c1CC(C)C` [thiazopyr], in data set [1], the “Log Pow” value is on record as 3.89.
In the case of `CS/C(C)=N\OC(=O)N(C)SN(C)C(=O)O/N=C(\C)SC` [thiodicarb], the “Log Pow” value in data set [1] is 1.62.
In the case of `COC(=O)NC(=S)Nc1ccccc1NC(=S)NC(=O)OC` [thiophanate-methyl], the “Log Pow” value in data set [1] is given as 1.5.
In the case of `CN(C)C(=S)SSC(=S)N(C)C` [thiuram], the “Log Pow” value in data set [1] is recorded as 1.73.
